Results from patent publication US5039684A, “Tetrazole amide derivatives of heterocyclic alkenyl acid and their use as antiallergic substances” (Valeas S. p. A., priority 1989, dated 1991).
Read-outs that look alike come from different tables or passages of the source.

What was measured:
[1] = system: passive cutaneous anaphylaxis; test: PCA test on the rat, intravenous administration just before challenge with antigen; format: in vivo, rat (male Sprague Dawley); conditions: for ED50: read-out: ED50 (conf. lim) P = 0.05; for inhibition in vivo at 0.3 mg/kg / inhibition in vivo at 1 mg/kg: read-out: inhibition (%)
Method: (§1) The serum, obtained from rats actively sensitized with ovalbumin (antigen) and suitably diluted, was injected intradermically into the shaven back of male Sprague Dawley rats (2 wheals per rat).
(§2) The rats were treated intravenously after 24 hours with a solution of ovalbumin and Evans blue. Thirty minutes later they were killed and the diameter and intensity of the blue ring formed at the site of the intradermic injection were measured.
(§3) For each treated group (5 per group) the % inhibition was then calculated with respect to the control group.
The pharmacological screening was effected by administering the compounds of the present invention intravenously and orally.
(§4) For intravenous administration (2 ml/kg), those compounds in which R1 =H (see formula I) were dissolved in an aqueous 1% NaHCO3 solution whereas for oral administration (4 ml/Kg) they were either suspended in 0.5% carboxymethylcellulose or dissolved in an aqueous 3% NaHCO3 solution.

[2] = in vivo; cited from earlier work
[3] = system: passive cutaneous anaphylaxis; test: PCA test on the rat, time response curve after oral administration; format: in vivo, rat (male Sprague Dawley); conditions: oral; for inhibition in vivo at 1 mg/kg / inhibition in vivo at 100 mg/kg / inhibition in vivo at 30 mg/kg / inhibition in vivo at 3 mg/kg: Rattus norvegicus; for inhibition in vivo at 1 mg/kg: 1 mg/kg/os; for inhibition in vivo at 100 mg/kg: 100 mg/kg/os; for inhibition in vivo at 30 mg/kg: 30 mg/kg/os, read-out: inhibition %; for inhibition in vivo at 3 mg/kg: 3 mg/kg/os
Method: as §1, §2, §3, §4

mouse = test: Acute toxicity in the mouse, oral administration; format: in vivo
Method: (§5) Acute toxicity was evaluated in the mouse by administering the compounds orally at scalar doses to a maximum of 1000 mg/kg to evaluate the 50% lethal dose (LD50). The compounds were administered in carboxymethylcellulose (0.5%) in a volume of […] to male mice (Swiss stock) of average weight 20 g.

[4] = Acute toxicity in the mouse, oral administration; format: in vivo; conditions: mouse, in vivo, po, 1000 mg/kg, oral, 1000 mg/kg/os; read-out: mortality (%EAD)
Method: as §5

[5] = system: passive cutaneous anaphylaxis; test: PCA test on the rat, oral administration before challenge with antigen; format: in vivo, rat (male Sprague Dawley); conditions: for inhibition in vivo at 0.3 mg/kg / inhibition in vivo at 1 mg/kg / inhibition in vivo at 3 mg/kg / ED50 / inhibition in vivo at 10 mg/kg / inhibition in vivo at 30 mg/kg: Rattus norvegicus, po; for inhibition in vivo at 3 mg/kg / inhibition in vivo at 10 mg/kg / inhibition in vivo at 30 mg/kg: read-out: inhibition (%); for ED50: Table 2, oral administration, read-out: ED50 (conf. lim) P = 0.05; for oral bioavailability (in words): from ED50 os / ED50 iv comparison; for ED50 OS/ED50 iv: oral 5 minutes before challenge / i.v. immediately before challenge
Method: The serum, obtained from rats actively sensitized with ovalbumin (antigen) and suitably diluted, was injected intradermically into the shaven back of male Sprague Dawley rats (2 wheals per rat). The rats were treated intravenously after 24 hours with a solution of ovalbumin and Evans blue. Thirty minutes later they were killed and the diameter and intensity of the blue ring formed at the site of the intradermic injection were measured. […] The pharmacological screening was effected by administering the compounds of the present invention intravenously and orally. For intravenous administration (2 ml/kg), those compounds in which R1 =H (see formula I) were dissolved in an aqueous 1% NaHCO3 solution whereas for oral administration (4 ml/Kg) they were either suspended in 0.5% carboxymethylcellulose or dissolved in an aqueous 3% NaHCO3 solution.

[6] = system: passive cutaneous anaphylaxis; conditions: oral, cited from earlier work
[7] = Rattus norvegicus, iv, immediately before challenge
[8] = 5 min, 5 minutes before challenge
[9] = 0.25 h, 15 minutes before challenge
[10] = 0.5 h, 30 minutes before challenge
[11] = 1 h, 60 minutes before challenge
[12] = 2 h, 120 minutes before challenge
[13] = Rattus norvegicus, iv, 0.3 mg/kg, immediately before challenge
[14] = Rattus norvegicus, iv, 1 mg/kg, immediately before challenge
[15] = Rattus norvegicus, iv, 3 mg/kg, immediately before challenge

| Structure (SMILES) | ED50 [1, 7] | No. (dead) (mouse; oral, 1000 mg/kg/os, 8 treated) | mortality [4] | inhibition in vivo at 0.3 mg/kg ([5]; 5 minutes before challenge) | inhibition in vivo at 1 mg/kg ([5]; 5 minutes before challenge) | inhibition in vivo at 3 mg/kg ([5]; 5 minutes before challenge) | ED50 [5, 8] | ED50 OS/ED50 iv [5] | inhibition in vivo at 1 mg/kg [1, 14] | inhibition in vivo at 3 mg/kg [1, 15] | inhibition in vivo at 10 mg/kg [1, 7] | inhibition in vivo at 30 mg/kg [3, 8] | inhibition in vivo at 30 mg/kg [3, 9] | inhibition in vivo at 30 mg/kg [3, 10] | inhibition in vivo at 30 mg/kg [3, 11] | inhibition in vivo at 30 mg/kg [3, 12] | inhibition in vivo at 10 mg/kg ([5]; 5 minutes before challenge) | inhibition in vivo at 30 mg/kg ([5]; 5 minutes before challenge) | other results |
| --- | --- | --- | --- | --- | --- | --- | --- | --- | --- | --- | --- | --- | --- | --- | --- | --- | --- | --- | --- |
| O=C([O-])c1cc(=O)c2c(OCC(O)COc3cccc4oc(C(=O)[O-])cc(=O)c34)cccc2o1.[Na+].[Na+] [DSCG, Disodium chromoglycate, reference compound] | – | – | – | – | – | – | – | – | – | – | – | – | – | – | – | – | – | – | inhibition (%) ([1]; i.v., 0.1 mg/kg, immediately before challenge): 28.1%; inhibition (%) ([1]; i.v., 0.3 mg/kg, immediately before challenge): 33.6%; inhibition (%) ([1]; i.v., 1 mg/kg, immediately before challenge): 70.0%; inhibition (%) ([1]; i.v., 3 mg/kg, immediately before challenge): 100%; ED50 (conf. lim) P = 0.05 ([1]; i.v., immediately before challenge): 0.52 mg/kg/iv; ED50 (conf. lim) P = 0.05 ([1]; i.v., immediately before challenge, listed as D.S.C.G.): 0.52 (0.47-0.83) mg/kg/iv; absorption at the gastro-enteric level [2]: not being absorbed at the gastro-enteric level |
| Cc1cccc(C(=O)Nc2nn[nH]n2)n1 [TA 57-07, 6-methyl-N-(1H-tetrazol-5-yl)-2-pyridinecarboxyamide, reference compound] | 0.059 mg/kg | 4 | 50% | 12.7% | 57.7% | 82.5% | 0.93 mg/kg | 15.76 | – | – | – | – | – | – | – | – | – | – | inhibition in vivo at 1 mg/kg [3, 8]: 86.8%; inhibition in vivo at 1 mg/kg [3, 9]: 43.7%; inhibition in vivo at 1 mg/kg [3, 10]: 37.6%; inhibition in vivo at 1 mg/kg [3, 11]: 17.3%; inhibition in vivo at 1 mg/kg [3, 12]: 4.1%; oral bioavailability (in words) [5]: less bioavailable when administered orally than the compounds of the present invention; ED50 ([6]; 5 minutes before challenge, Tsuzurahara et al.): 0.9 (0.6-1.6) mg/kg/os |
| COc1ccc(/C=C/C(=O)Nc2ccccc2C(=O)O)cc1OC [Tranilast, N-(3', 4'-dimethoxycinnamoyl) anthranylic acid, reference compound] | – | 7 | 87.5% | – | – | – | – | – | – | – | – | – | – | – | – | – | – | – | inhibition in vivo at 100 mg/kg [3, 8]: 17.9%; inhibition in vivo at 100 mg/kg [3, 9]: 37.4%; inhibition in vivo at 100 mg/kg [3, 10]: 20.5%; inhibition in vivo at 100 mg/kg [3, 11]: 20.5%; inhibition in vivo at 100 mg/kg [3, 12]: 13.7%; time of administration before challenge giving the peak (maximum) effect [3]: 15 min; ED50 [5, 9]: 115 mg/kg; oral bioavailability (in words) [5]: less bioavailable when administered orally than the compounds of the present invention; activity compared with Tranilast / compounds of the invention (in words) ([5]; oral): less active by at least one order of magnitude; ED50 ([6]; 2 hours before challenge, Koda et al.): 150 (88, 3-255) mg/kg/os |
| O=C(/C=C/c1cccnc1)Nc1nn[nH]n1 [VAL 47-017, N-1H-tetrazol-5-yl-[3-(3-pyridyl)]-acrylamide trans isomer] | 0.36 mg/kg | 0 | 0% | – | – | 21.7% | – | – | 71.6% | 93.9% | 100% | 45% | 7.3% | 1% | 0% | 0% | 22.8% | 48.3% | inhibition in vivo at 0.3 mg/kg [1, 13]: 45.7% |
| O=C(/C=C/c1ccsc1)Nc1nn[nH]n1 [VAL 47-034, N-1H-tetrazol-5-yl-[3-(3-thienyl)]-acrylamide trans isomer] | 4.74 mg/kg | 2 | 25% | – | – | 0% | – | – | 1.3% | 48.6% | 63.5% | 64.5% | 36% | 41.9% | 6.9% | 0% | 0% | 53.4% | – |
| O=C(/C=C/c1ccc(Br)s1)Nc1nn[nH]n1 [VAL 47-008, N-1H-tetrazol-5-yl-[3-[5-bromo-(2-thienyl)]]-acrylamide trans isomer] | 12.8 mg/kg | 0 | 0% | – | – | 32.5% | – | – | 0% | 8.6% | 31.9% | 37.7% | 16% | 10.9% | 3.4% | 2.3% | 26.9% | 43.7% | inhibition in vivo at 30 mg/kg ([1]; Rattus norvegicus, iv, 30 mg/kg, immediately before challenge): 82.3% |
| O=C(/C=C/c1ccc[nH]1)Nc1nn[nH]n1 [VAL 47-078, N-1H-tetrazol-5-yl-[3-(2-pyrrole)]-acrylamide trans isomer] | 3.85 mg/kg | 0 | 0% | – | – | 7.4% | – | – | 11.2% | 41.3% | 78.6% | 31.4% | 29.3% | 9% | 4.3% | 0.5% | 35.8% | 38.3% | – |
| Cc1ccc(/C=C\C(=O)Nc2nn[nH]n2)o1 [VAL 47-073cis, N-1H-tetrazol-5-yl-[3-[5-methyl-(2-furyl)]]-acrylamide cis isomer] | 5.76 mg/kg | – | 12.5% | 25.1% | 42.6% | 67.2% | 1.26 mg/kg | 0.22 | 6.6% | 25% | 69.4% | – | – | – | – | – | – | – | inhibition in vivo at 3 mg/kg [3, 8]: 50.8%; inhibition in vivo at 3 mg/kg [3, 9]: 66.4%; inhibition in vivo at 3 mg/kg [3, 10]: 17.3%; inhibition in vivo at 3 mg/kg [3, 11]: 5.8%; inhibition in vivo at 3 mg/kg [3, 12]: 0%; No. (dead) (mouse; mouse, in vivo, po, 1000 mg/kg): 1 |
| Cc1ccc(/C=C\C(=O)Nc2nn[nH]n2)s1 [VAL 47-005cis, N-1H-tetrazol-5-yl-[3-[5-methyl-(2-thienyl)]]acrylamide cis isomer] | 0.89 mg/kg | – | 0% | 23.6% | 51.1% | 94.5% | 0.78 mg/kg | 0.88 | 54.6% | 82.9% | – | – | – | – | – | – | – | – | inhibition in vivo at 0.3 mg/kg [1, 13]: 18%; activity greater than its trans isomer (VAL 47-005) ([1]; i.v., ratio of ED50): about 3 times; inhibition in vivo at 1 mg/kg [3, 8]: 52.4%; inhibition in vivo at 1 mg/kg [3, 9]: 27.5%; inhibition in vivo at 1 mg/kg [3, 10]: 20.6%; inhibition in vivo at 1 mg/kg [3, 11]: 19.6%; inhibition in vivo at 1 mg/kg [3, 12]: 2.1%; No. (dead) (mouse; mouse, in vivo, po, 1000 mg/kg): 0; toxicity (in words) (mouse; oral, mouse): do not determine any toxic effect |
